Results reported in patent publication US10570179B2, “Substituted urea depsipeptide analogs as activators of the CLPP endopeptidase” (priority 2016, dated 2020).
Numbered stars: 1 amine (or outer) side, 2 acyl side, 3 side chain; on linkers, the order of the positions; unused ones are H or OH. Bridge positions count the residues as written; N and C are the ends. Square brackets hold non-standard residues; d marks the D form. Peptide text beside a SMILES is read from it. * marks the point of attachment. ξ: configuration not given here. Piperazine(2S-CO,4-Me) = CN1CCN[C@H](C(=O)O)C1; Phe(3,5-Me2) = Cc1cc(C)cc(C[C@H](N)C(=O)O)c1; Phe(3-Me) = Cc1cccc(C[C@H](N)C(=O)O)c1; NH(4-Cl-2-F-phenyl) = Fc1cc(Cl)ccc1N*; Pro(4R-Me) = C[C@H]1CN[C@H](C(=O)O)C1; Hyp = O=C(O)[C@@H]1C[C@@H](O)CN1; NH(4-Me-phenyl) = Cc1ccc(N*)cc1; ξNMeThr = CNC(C(=O)O)[C@@H](C)O; aThr = C[C@H](O)[C@H](N)C(=O)O; Pip = O=C(O)[C@@H]1CCCCN1; CO = O=C([*:1])[*:2]; X2 = Fc1cc(N*)ccc1Cl

Assays:
S. aureus ClpP (Sa-ClpP) = biological target: T1, S. aureus ClpP (Sa-ClpP) (Staphylococcus aureus, UniProt Q2G036); assay: Casein-BODIPY digestion assay (ClpP activation); format: biochemical
T1 construct: made in house; host or cells: E. coli BL21 (DE3)
T1 sequence (Q2G036 whole entry): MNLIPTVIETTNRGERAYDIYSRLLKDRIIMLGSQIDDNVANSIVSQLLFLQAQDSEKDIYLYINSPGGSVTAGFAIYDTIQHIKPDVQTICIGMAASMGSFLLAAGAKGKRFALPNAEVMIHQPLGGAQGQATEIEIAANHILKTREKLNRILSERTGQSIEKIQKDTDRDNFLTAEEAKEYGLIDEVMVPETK

[1] = Microsomal metabolic stability; format: in vitro ADME, mouse
Description: Compounds were initially prepared by dissolving them into DMSO at a final concentration of 10 mM. NADPH regenerating solutions A and B and mouse liver microsomes (CD-1) were obtained from BD Gentest (Woburn, Mass.). Ninety-six well deep well plates were obtained from MidWest Scientific Inc (Valley Park, Mo.).
Sample preparation for microsomal stability was modified from methods of Di, L., et al., Int J Pharm. 2005 Jun. 13; 297(1-2):110-9. A set of incubation times of 0, 15, 30, 60, 120, and 240 minutes were used. Mouse liver microsomal solutions were prepared by adding 58 μL of concentrated human or mouse liver microsomes (20 mg/mL protein concentration) to 1.756 mL of 0.1 M potassium phosphate buffer (pH 7.4) and 5 μL of 0.5 M EDTA to make a 0.6381 mg/mL (protein) microsomal solution. NADPH regenerating agent contained 113 μL of NADPH A, 23 μL of NADPH B, and 315 μL of 0.1 M potassium phosphate buffer (pH 7.4). The diluted test compound solutions (2 μL) were each added directly to a 1.79 mL of liver microsomal solution. This solution was mixed and 90 μL was transferred to 6 time points plates (each in triplicate wells). For the time 0 plate, 225 μL of cold acetonitrile with internal standard ([…] warfarin) was added to each well, followed by addition of NADPH regenerating agent (22.5 μL) and no incubation. For other five time points' plate, NADPH regenerating agent (22.5 μL) was added to each well to initiate the reaction. The plates were incubated at 37° C. for the required time, followed by quenching of the reaction by adding 225 μL of cold acetonitrile with internal standard (4 μg/ml warfarin). All of the plates were sealed and mixed well at 600 rpm for 10 minutes followed by centrifugation at 4000 rpm for 20 minutes. The supernatants (120 μL) were transferred to analytical plates for analysis by LCMS. LCMS conditions were described in the materials and instrumentation section above. The metabolic stability is evaluated via the half-life from least-squares fit of the multiple time points based on first-order kinetics.

[2] = microsomal metabolic stability half-life, mouse liver microsomes

| SMILES | EC50 (S. aureus ClpP (Sa-ClpP)) [µM] | Mouse [1, 2] [h] | Mouse ([1]; CD-1, mouse, pH 7.4) [h] |
| --- | --- | --- | --- |
| Cc1ccc(NC(=O)N[C@@H](Cc2cccc(C)c2)C(=O)N[C@@H]2C(=O)N3CCC[C@H]3C(=O)N3CCCC[C@H]3C(=O)N[C@@H](C)C(=O)N3C[C@H](C)C[C@H]3C(=O)O[C@H]2C)cc1 [Compound 1, (S)-3-(M-TOLYL)-2-(3-(P-TOLYL)UREIDO)-N-((2R,6S,8AS,14AS,20S,21S,23AS)-2,6,21-TRIMETHYL-5,8,14,19,23-PENTAOXOOCTADECAHYDRO-1H,5H,14H,19H-PYRIDO[2,1-I]DIPYRROLO[2,1-C:2′,1′-L][1]OXA[4,7,10,13]TETRAAZACYCLOHEXADECIN-20-YL)PROPANAMIDE] ({NH(4-Me-phenyl)-CO}-[Phe(3-Me)][aThr]P[Pip]A[Pro(4R-Me)]; ester 2-C) | 0.43 ± 0.02 | 5.22 | – |
| Cc1ccc(NC(=O)N[C@@H](Cc2cc(C)cc(C)c2)C(=O)N[C@@H]2C(=O)N3CCC[C@H]3C(=O)N3CCCC[C@H]3C(=O)N[C@@H](C)C(=O)N3C[C@H](C)C[C@H]3C(=O)O[C@H]2C)cc1 [Compound 2, (S)-3-(3,5-DIMETHYLPHENYL)-2-(3-(P-TOLYL)UREIDO)-N-((2R,6S,8AS,14AS,20S,21S,23AS)-2,6,21-TRIMETHYL-5,8,14,19,23-PENTAOXOOCTADECAHYDRO-1H,5H,14H,19H-PYRIDO[2,1-I]DIPYRROLO[2,1-C:2′,1′-L][1]OXA[4,7,10,13]TETRAAZACYCLOHEXADECIN-20-YL)PROPANAMIDE] ({NH(4-Me-phenyl)-CO}-[Phe(3,5-Me2)][aThr]P[Pip]A[Pro(4R-Me)]; ester 2-C) | 0.87 ± 0.03 | 2.85 | – |
| Cc1cccc(C[C@H](NC(=O)Nc2ccc(Cl)cc2F)C(=O)N[C@@H]2C(=O)N3CCC[C@H]3C(=O)N3CCCC[C@H]3C(=O)N[C@@H](C)C(=O)N3C[C@H](C)C[C@H]3C(=O)O[C@H]2C)c1 [Compound 3, (S)-2-(3-(4-CHLORO-2-FLUOROPHENYL)UREIDO)-3-(M-TOLYL)-N-((2R,6S,8AS,14AS,20S,21S,23AS)-2,6,21-TRIMETHYL-5,8,14,19,23-PENTAOXOOCTADECAHYDRO-1H,5H,14H,19H-PYRIDO[2,1-I]DIPYRROLO[2,1-C:2′,1′-L][1]OXA[4,7,10,13]TETRAAZACYCLOHEXADECIN-20-YL)PROPANAMIDE] ({NH(4-Cl-2-F-phenyl)-CO}-[Phe(3-Me)][aThr]P[Pip]A[Pro(4R-Me)]; ester 2-C) | 0.39 ± 0.02 | – | 11.65 ± 2.2 |
| Cc1cc(C)cc(C[C@H](NC(=O)Nc2ccc(Cl)cc2F)C(=O)N[C@@H]2C(=O)N3CCC[C@H]3C(=O)N3CCCC[C@H]3C(=O)N[C@@H](C)C(=O)N3C[C@H](C)C[C@H]3C(=O)O[C@H]2C)c1 [Compound 4, (S)-2-(3-(4-CHLORO-2-FLUOROPHENYL)UREIDO)-3-(3,5-DIMETHYLPHENYL)-N-((2R,6S,8AS,14AS,20S,21S,23AS)-2,6,21-TRIMETHYL-5,8,14,19,23-PENTAOXOOCTADECAHYDRO-1H,5H,14H,19H-PYRIDO[2,1-I]DIPYRROLO[2,1-C:2′,1′-L][1]OXA[4,7,10,13]TETRAAZACYCLOHEXADECIN-20-YL)PROPANAMIDE] ({NH(4-Cl-2-F-phenyl)-CO}-[Phe(3,5-Me2)][aThr]P[Pip]A[Pro(4R-Me)]; ester 2-C) | 0.43 ± 0.02 | – | 6.99 ± 1.07 |
| Cc1cccc(C[C@H](NC(=O)Nc2ccc(Cl)cc2F)C(=O)N[C@@H]2C(=O)N3CCC[C@H]3C(=O)N(C)C([C@@H](C)O)C(=O)N[C@@H](C)C(=O)N3C[C@H](C)C[C@H]3C(=O)O[C@H]2C)c1 (stereo partly drawn) [Compound 5] ({NH(4-Cl-2-F-phenyl)-CO}-[Phe(3-Me)][aThr]P[ξNMeThr]A[Pro(4R-Me)]; ester 2-C) | 0.32 ± 0.02 | – | 1.02 ± 0.2 |
| Cc1cccc(C[C@H](NC(=O)Nc2ccc(Cl)cc2F)C(=O)N[C@@H]2C(=O)N3C[C@H](O)C[C@H]3C(=O)N3CCCC[C@H]3C(=O)N[C@@H](C)C(=O)N3C[C@H](C)C[C@H]3C(=O)O[C@H]2C)c1 [Compound 6, (S)-2-(3-(4-CHLORO-2-FLUOROPHENYL)UREIDO)-N-((2R,6S,8AS,14AS,16R,20S,21S,23AS)-16-HYDROXY-2,6,21-TRIMETHYL-5,8,14,19,23-PENTAOXOOCTADECAHYDRO-1H,5H,14H,19H-PYRIDO[2,1-I]DIPYRROLO[2,1-C:2′,1′-L][1]OXA[4,7,10,13]TETRAAZACYCLOHEXADECIN-20-YL)-3-(M-TOLYL)PROPANAMIDE] ({NH(4-Cl-2-F-phenyl)-CO}-[Phe(3-Me)][aThr][Hyp][Pip]A[Pro(4R-Me)]; ester 2-C) | 0.23 ± 0.02 | – | 4.61 ± 1.2 |
| Cc1cccc(C[C@H](NC(=O)Nc2ccc(Cl)cc2F)C(=O)N[C@H]2COC(=O)[C@@H]3C[C@@H](C)CN3C(=O)[C@H](C)NC(=O)[C@@H]3CCCCN3C(=O)[C@@H]3CCCN3C2=O)c1 [Compound 8, (S)-2-(3-(4-CHLORO-2-FLUOROPHENYL)UREIDO)-N-((2R,6S,8AS,14AS,20S,23AS)-2,6-DIMETHYL-5,8,14,19,23-PENTAOXOOCTADECAHYDRO-1H,5H,14H,19H-PYRIDO[2,1-I]DIPYRROLO[2,1-C:2′,1′-L][1]OXA[4,7,10,13]TETRAAZACYCLOHEXADECIN-20-YL)-3-(M-TOLYL)PROPANAMIDE] | 0.28 ± 0.02 | – | 1.22 ± 0.13 |
| Cc1cccc(C[C@H](NC(=O)Nc2ccc(Cl)cc2F)C(=O)N[C@H]2COC(=O)[C@@H]3C[C@@H](C)CN3C(=O)[C@H](C)NC(=O)[C@@H]3CCCCN3C(=O)[C@@H]3C[C@@H](O)CN3C2=O)c1 [Compound 10] | 0.38 ± 0.03 | – | 0.7 ± 0.07 |
| Cc1cccc(C[C@H](NC(=O)Nc2ccc(Cl)cc2F)C(=O)N[C@@H]2C(=O)N3CCC[C@H]3C(=O)N3CCN(C)C[C@H]3C(=O)N[C@@H](C)C(=O)N3C[C@H](C)C[C@H]3C(=O)O[C@H]2C)c1 [Compound 11, (S)-2-(3-(4-CHLORO-2-FLUOROPHENYL)UREIDO)-N-((6AS,12S,13S,15AS,17R,21S,23AS)-2,13,17,21-TETRAMETHYL-6,11,15,20,23-PENTAOXOOCTADECAHYDRO-2H,6H,11H,15H-PYRAZINO[2,1-I]DIPYRROLO[2,1-C:2′,1′-L][1]OXA[4,7,10,13]TETRAAZACYCLOHEXADECIN-12-YL)-3-(M-TOLYL)PROPANAMIDE] ({NH(4-Cl-2-F-phenyl)-CO}-[Phe(3-Me)][aThr]P[Piperazine(2S-CO,4-Me)]A[Pro(4R-Me)]; ester 2-C) | 0.29 ± 0.01 | – | 0.67 ± 0.07 |
| Cc1cccc(C[C@H](NC(=O)Nc2ccc(Cl)cc2F)C(=O)N[C@H]2COC(=O)[C@@H]3C[C@@H](C)CN3C(=O)[C@H](C)NC(=O)[C@@H]3CCCCN3C(=O)[C@@H]3C[C@H](N)CN3C2=O)c1 [Compound 12, (S)—N-((2R,6S,8AS,14AS,16S,20S,23AS)-16-AMINO-2,6-DIMETHYL-5,8,14,19,23-PENTAOXOOCTADECAHYDRO-1H,5H,14H,19H-PYRIDO[2,1-I]DIPYRROLO[2,1-C:2′,1′-L][1]OXA[4,7,10,13]TETRAAZACYCLOHEXADECIN-20-YL)-2-(3-(4-CHLORO-2-FLUOROPHENYL)UREIDO)-3-(M-TOLYL)PROPANAMIDE] | 0.58 ± 0.02 | – | 2.34 ± 0.44 |
| Cc1cccc(C[C@H](NC(=O)Nc2ccc(Cl)cc2F)C(=O)N[C@H]2COC(=O)[C@@H]3C[C@@H](C)CN3C(=O)[C@H](C)NC(=O)[C@@H]3CN(C)CCN3C(=O)[C@@H]3CCCN3C2=O)c1 [Compound 13, (S)-2-(3-(4-CHLORO-2-FLUOROPHENYL)UREIDO)-3-(M-TOLYL)-N-((6AS,12S,15AS,17R,21S,23AS)-2,17,21-TRIMETHYL-6,11,15,20,23-PENTAOXOOCTADECAHYDRO-2H,6H,11H,15H-PYRAZINO[2,1-I]DIPYRROLO[2,1-C:2′,1′-L][1]OXA[4,7,10,13]TETRAAZACYCLOHEXADECIN-12-YL)PROPANAMIDE] ({NH(4-Cl-2-F-phenyl)-CO}-[Phe(3-Me)]SP[Piperazine(2S-CO,4-Me)]A[Pro(4R-Me)]; ester 2-C) | 1.52 ± 0.1 | – | 0.49 ± 0.03 |
| Cc1cccc(C[C@H](NC(=O)Nc2ccc(Cl)c(F)c2)C(=O)N[C@H]2COC(=O)[C@@H]3C[C@@H](C)CN3C(=O)[C@H](C)NC(=O)[C@@H]3CN(C)CCN3C(=O)[C@@H]3CCCN3C2=O)c1 [Compound 14, (S)-2-(3-(4-CHLORO-3-FLUOROPHENYL)UREIDO)-3-(M-TOLYL)-N-((6AS,12S,15AS,17R,21S,23AS)-2,17,21-TRIMETHYL-6,11,15,20,23-PENTAOXOOCTADECAHYDRO-2H,6H,11H,15H-PYRAZINO[2,1-I]DIPYRROLO[2,1-C:2′,1′-L][1]OXA[4,7,10,13]TETRAAZACYCLOHEXADECIN-12-YL)PROPANAMIDE] ({X2-CO}-[Phe(3-Me)]SP[Piperazine(2S-CO,4-Me)]A[Pro(4R-Me)]; ester 2-C) | 1.41 ± 0.2 | – | 3.15 ± 0.26 |
